Here are results for 19 compounds from US9669031B2, “MNK inhibitors and methods related thereto” (eFFECTOR Therapeutics, Inc., priority 2014, dated 2017).

One series in a line: in vivo. To be noted: Balb/c, mouse, po, 10 mg/kg; for AUC(0-t): AUClast; for half-life: T½.
The conditions of series [1]: Balb/c, mouse, in vivo, po, 10 mg/kg.
Series [2] in a line: Pharmacokinetics in Balb/c mice, single intravenous bolus administration. The series is classed as in vivo. To be noted: intravenous bolus 1 mg/kg, formulation 10DMI/15EtOH/35PG/40Saline, gender F; for AUC(0-inf) / half-life / Vd: female, mouse, plasma; for AUC(0-inf): read-out: AUCINF_obs; for half-life: read-out: T½ (converted); for Vd: read-out: Vss.

Where two headings read alike, the source gives them in different places.

Regarding `CC1(C2CCCC2)NC(=O)c2ccc(Nc3ccncn3)c(=O)n21` (stereo not shown) [Cpd. No. 9, 3-cyclopentyl-3-methyl-6-(pyrimidin-4-ylamino)-2,3-dihydroimidazo[1,5-a]pyridine-1,5-dione], in “in vivo” (male), the AUC(0-t) – broadly, the area under the concentration-time curve up to a stated or last time point – was found to be 4.83 µg·h/mL; the Cmax – broadly, the peak of the concentration-time curve – was 5.05 µg/mL; the Tmax (usually the time at which the peak concentration occurs) turned out to be 0.5 h; the half-life is 0.831 h. This compound showed a Tlast in series [1] (male) of 8 h.
Regarding `CC1(C)NC(=O)c2ccc(Nc3cc(NC(=O)C4CC4)ncn3)c(=O)n21` [Cpd. No. 10, N-(6-((3,3-dimethyl-1,5-dioxo-1,2,3,5-tetrahydroimidazo[1,5-a]pyridin-6-yl)amino)pyrimidin-4-yl)cyclopropanecarboxamide], in series [2], the AUC(0-inf) was 0.396 µg·h/mL, the half-life is 2.8 h, the Vd was 5.45 L/kg and the Cl_obs turned out to be 2.53 L/h/kg. Also, in “in vivo” (female), the exposure AUC(0-t) worked out at 6.42 µg·h/mL, the Cmax was determined as 1.72 µg/mL, the Tmax was 0.5 h and the half-life was 1.87 h. In the series “in vivo” (male), the AUC(0-t) is 8.75 µg·h/mL, the Cmax turned out to be 2.16 µg/mL, the Tmax turned out to be 1 h and the half-life was 4.22 h. In addition, in series [1] (female), the Tlast was determined as 8 h. In addition, the Tlast in series [1] (male) is recorded as 24 h.
Regarding `CC1(C(F)(F)F)NC(=O)c2ccc(Nc3ccncn3)c(=O)n21` (stereo not shown) [Cpd. No. 14, 3-methyl-6-(pyrimidin-4-ylamino)-3-(trifluoromethyl)-2,3-dihydroimidazo[1,5-a]pyridine-1,5-dione], in the series “in vivo” (male), the AUC(0-t) stood at 0.255 µg·h/mL, the Cmax is 0.405 µg/mL and the Tmax was found to be 0.5 h. Moreover, the Tlast in series [1] (male) is 8 h.
`O=C1NC2(CCCNC2)n2c1ccc(Nc1ccncn1)c2=O` (stereo not shown) [Cpd. No. 20, 6-(pyrimidin-4-ylamino)-1H-spiro[imidazo[1,5-a]pyridine-3,3′-piperidine]-1,5(2H)-dione]: in the series “in vivo” (female), the AUC(0-t) is 2.09 µg·h/mL, the Cmax turned out to be 2.24 µg/mL, the Tmax amounted to 0.5 h and the half-life is 0.643 h. Further, the Tlast in series [1] (female) was determined as 4 h.
For the compound `O=C1NC2(CCCC2)n2c1ccc(Nc1cc(NC(=O)C3CC3)ncn1)c2=O` [Cpd. No. 21, N-[6-[(1,5-dioxospiro[2H-imidazo[1,5-a]pyridine-3,1′-cyclopentane]-6-yl)amino]pyrimidin-4-yl]cyclopropanecarboxamide], in “in vivo” (female), the AUC(0-t) stood at 0.109 µg·h/mL, the Cmax was 0.0502 µg/mL, the Tmax turned out to be 0.5 h and the half-life is 2.66 h. In addition, the Tlast in series [1] (female) is given as 4 h.
For `CC1(CC(F)(F)F)NC(=O)c2ccc(Nc3cc(NC(=O)C4CC4)ncn3)c(=O)n21` (stereo not shown) [Cpd. No. 22, N-(6-((3-methyl-1,5-dioxo-3-(2,2,2-trifluoroethyl)-1,2,3,5-tetrahydroimidazo[1,5-a]pyridin-6-yl)amino)pyrimidin-4-yl)cyclopropanecarboxamide], in the series “in vivo” (female), the AUC(0-t) worked out at 1.62 µg·h/mL, the concentration peaked (Cmax) at 0.371 µg/mL, the Tmax amounted to 2 h and the half-life is 1.93 h. This compound registered a Tlast in series [1] (female) of 8 h.
On the same counts, the results for `CC1(C2CCCC2)NC(=O)c2ccc(Nc3cc(NC(=O)C4CC4)ncn3)c(=O)n21` (stereo not shown) [Cpd. No. 23, N-[6-[(3-cyclopentyl-3-methyl-1,5-dioxo-2H-imidazo[1,5-a]pyridin-6-yl)amino]pyrimidin-4-yl]cyclopropanecarboxamide] are 0.0757 µg·h/mL, 0.0175 µg/mL, 1 h, 3.49 h and 8 h.
Regarding `CC1(C(F)(F)F)NC(=O)c2ccc(Nc3cc(NC(=O)C4CC4)ncn3)c(=O)n21` (stereo not shown) [Cpd. No. 24, N-[6-[[3-methyl-1,5-dioxo-3-(trifluoromethyl)-2H-imidazo[1,5-a]pyridin-6-yl]amino]pyrimidin-4-yl]cyclopropanecarboxamide], in the series “in vivo” (female), the AUC(0-t) stood at 0.921 µg·h/mL, the concentration peaked (Cmax) at 0.192 µg/mL, the Tmax was 2 h and the half-life is 1.91 h. The Tlast in series [1] (female) turned out to be 8 h.
Take `CC1(C(F)(F)F)NC(=O)c2c(Cl)cc(Nc3ccncn3)c(=O)n21` (stereo not shown) [Cpd. No. 35, 8-chloro-3-methyl-6-(pyrimidin-4-ylamino)-3-(trifluoromethyl)-2H-imidazo[1,5-a]pyridine-1,5-dione]: in the series “in vivo” (female), the AUC(0-t) came out at 71.3 µg·h/mL, the concentration peaked (Cmax) at 6.93 µg/mL, the Tmax was 2 h and the half-life is 3.46 h. The Tlast in series [1] (female) is recorded as 24 h.
In the same order, the values of `CC1(C)NC(=O)c2c(Cl)cc(Nc3cc(NC(=O)C4CC4)ncn3)c(=O)n21` [Cpd. No. 43, N-[6-[(8-chloro-3,3-dimethyl-1,5-dioxo-2H-imidazo[1,5-a]pyridin-6-yl)amino]pyrimidin-4-yl]cyclopropanecarboxamide] are 0.132 µg·h/mL, 0.0218 µg/mL, 2 h, 6.75 h and 8 h.
On the same counts, the results for `O=C1NC2(CCCCC2)n2c1c(Cl)cc(Nc1cc(NC(=O)C3CC3)ncn1)c2=O` [Cpd. No. 45, N-(6-((8′-chloro-1′,5′-dioxo-1′,5′-dihydro-2′H-spiro[cyclohexane-1,3′-imidazo[1,5-a]pyridin]-6′-yl)amino)pyrimidin-4-yl)cyclopropanecarboxamide] are 0.0429 µg·h/mL, 0.00916 µg/mL, 2 h, 7.55 h and 8 h.
Turning to `O=C1NC2(CCC(F)(F)CC2)n2c1c(Cl)cc(Nc1cc(NC(=O)C3CC3)ncn1)c2=O` [Cpd. No. 50, N-[6-[(8-chloro-4′,4′-difluoro-1,5-dioxo-spiro[2H-imidazo[1,5-a]pyridine-3,1′-cyclohexane]-6-yl)amino]pyrimidin-4-yl]cyclopropanecarboxamide], in series [2], the AUC(0-inf) was determined as 0.887 µg·h/mL, the half-life is 2.47 h, the Vd came to 3.18 L/kg and the Cl_obs came out at 1.13 L/h/kg. In addition, the Tmax in “in vivo” (female) was found to be 4 h. This compound displayed a Tlast in series [1] (female) of 24 h.
With `CC1(c2cccc(Cl)c2)NC(=O)c2c(Cl)cc(Nc3cc(NC(=O)C4CC4)ncn3)c(=O)n21` (stereo not shown) [Cpd. No. 51, N-[6-[[8-chloro-3-(3-chlorophenyl)-3-methyl-1,5-dioxo-2H-imidazo[1,5-a]pyridin-6-yl]amino]pyrimidin-4-yl]cyclopropanecarboxamide], in series [2], the AUC(0-inf) turned out to be 2.5 µg·h/mL, the half-life was 5.78 h, the Vd stood at 2.79 L/kg and the Cl_obs stood at 0.4 L/h/kg. Further, in “in vivo” (female), the AUC(0-t) is 31.3 µg·h/mL, the Cmax was 3.16 µg/mL and the half-life is 7.38 h. Moreover, in series [1] (female), the AUClast was found to be 35.8 µg·h/mL, the Tlast is recorded as 24 h and the T½ came out at 8.36 h.
In the series “in vivo” (female), `CC1(c2cccc(F)c2)NC(=O)c2c(Cl)cc(Nc3cc(NC(=O)C4CC4)ncn3)c(=O)n21` (stereo not shown) [Cpd. No. 52, N-[6-[[8-chloro-3-(3-fluorophenyl)-3-methyl-1,5-dioxo-2H-imidazo[1,5-a]pyridin-6-yl]amino]pyrimidin-4-yl]cyclopropanecarboxamide] had an AUC(0-t) of 38.1 µg·h/mL, a Cmax of 3.37 µg/mL and a half-life of 5.41 h. In series [1] (female), this compound had an AUClast of 22.3 µg·h/mL, a Tlast of 24 h and a T½ of 3.56 h.
For the compound `Cl.O=C1NC2(CCCNC2)n2c1c(Cl)cc(Nc1ccncn1)c2=O` (stereo not shown) [Cpd. No. 54, 8-chloro-6-(pyrimidin-4-ylamino)spiro[2H-imidazo[1,5-a]pyridine-3,3′-piperidine]-1,5-dione hydrochloride], in the series “in vivo” (female), the peak level (Cmax) was 1.05 µg/mL and the Tmax was 0.5 h.
With `CC1(CC(F)(F)F)NC(=O)c2c(Cl)cc(Nc3ccncn3)c(=O)n21` (stereo not shown) [Cpd. No. 55, 8-chloro-3-methyl-6-(pyrimidin-4-ylamino)-3-(2,2,2-trifluoroethyl)-2H-imidazo[1,5-a]pyridine-1,5-dione], in “in vivo” (female), the AUC(0-t) came out at 56.9 µg·h/mL, the Cmax is 6.17 µg/mL, the Tmax turned out to be 1 h and the half-life is 2.61 h. This compound gave a Tlast in series [1] (female) of 24 h.
In the case of `CC1(c2cccc(Cl)c2)NC(=O)c2c(Cl)cc(Nc3ccncn3)c(=O)n21` (stereo not shown) [Cpd. No. 58, 8-chloro-3-(3-chlorophenyl)-3-methyl-6-(pyrimidin-4-ylamino)-2H-imidazo[1,5-a]pyridine-1,5-dione], in the series “in vivo” (female), the AUC(0-t) came to 5.43 µg·h/mL, the Cmax is 0.69 µg/mL, the Tmax is 2 h and the half-life is 5.32 h. Moreover, the Tlast in series [1] (female) is 24 h.
In the case of `Cl.O=C1NC2(CCCCC2)n2c1c(Cl)cc(Nc1ccncn1)c2=O` [Cpd. No. 109, 8-chloro-6-(pyrimidin-4-ylamino)spiro[2H-imidazo[1,5-a]pyridine-3,1′-cyclohexane]-1,5-dione hydrochloride], in “in vivo” (female), the Cmax amounted to 0.63 µg/mL, the Tmax was found to be 0.3 h and the half-life is 2.5 h.
On the same counts, the results for `Cl.O=C1NC2(CCC(F)(F)CC2)n2c1c(Cl)cc(Nc1ccncn1)c2=O` [Cpd. No. 110, 8-chloro-4′,4′-difluoro-6-(pyrimidin-4-ylamino)spiro[2H-imidazo[1,5-a]pyridine-3,1′-cyclohexane]-1,5-dione hydrochloride] are 1.7 µg/mL, 0.3 h and 2.6 h.
